# Results from patent publication US9944602B2, “Piperidinone herbicides” (E. I. DU PONT DE NEMOURS AND COMPANY, priority 2014, dated 2018).
# How the values were obtained:
# Type in all cases: in vivo
# [1] = system: pigweed (Amaranthus retroflexus); assay: Test A postemergence pigweed; settings: 0 to 100 scale, 0 is no effect, 100 is complete control
# From the text: (§1) Seeds of plant species selected from barnyardgrass (Echinochloa crus-galli), kochia (Kochia scoparia), ragweed (common ragweed, Ambrosia elatior), ryegrass, Italian (Italian ryegrass, Lolium multiflorum), crabgrass, large (large crabgrass, Digitaria sanguinalis), foxtail, giant (giant foxtail, Setaria faberii), morningglory (Ipomoea spp.), pigweed (Amaranthus retroflexus), velvetleaf (Abutilon theophrasti), wheat (Triticum aestivum), and corn (Zea mays) were planted into a blend of loam soil and sand and treated preemergence with a directed soil spray using test chemicals formulated in a non-phytotoxic solvent mixture which included a surfactant.
# (§2) At the same time, plants selected from these crop and weed species and also blackgrass (Alopecurus myosuroides), and galium (catchweed bedstraw, Galium aparine) were planted in pots containing the same blend of loam soil and sand and treated with postemergence applications of test chemicals formulated in the same manner. Plants ranged in height from 2 to 10 cm and were in the one- to two-leaf stage for the postemergence treatment. Treated plants and untreated controls were maintained in a greenhouse for approximately 10 d, after which time all treated plants were compared to untreated controls and visually evaluated for injury. Plant response ratings, summarized in Table A, are based on a 0 to 100 scale where 0 is no effect and 100 is complete control. A dash (-) response means no test result.
# [2] = system: barnyardgrass (Echinochloa crus-galli); assay: Test A postemergence barnyardgrass; settings: 0 to 100 scale, 0 is no effect, 100 is complete control
# From the text: as §1, §2
# [3] = system: rice (Oryza sativa); assay: Test B flooded paddy test rice; settings: Table B, Flood, scale 0 to 100
# Description: (§3) Plant species in the flooded paddy test selected from rice (Oryza sativa), sedge, umbrella (small-flower umbrella sedge, Cyperus difformis), ducksalad (Heteranthera limosa), and barnyardgrass (Echinochloa crus-galli) were grown to the 2-leaf stage for testing. At the time of treatment, test pots were flooded to 3 cm above the soil surface, treated by application of test compounds directly to the paddy water, and then maintained at that water depth for the duration of the test. Treated plants and controls were maintained in a greenhouse for 13 to 15 d, after which time all species were compared to controls and visually evaluated. […] A dash (-) response means no test result.
# [4] = system: kochia (Kochia scoparia); assay: Test A preemergence kochia; settings: 0 to 100 scale, 0 no effect, 100 complete control
# From the text: as §1, §2
# [5] = system: pigweed (Amaranthus retroflexus); assay: Test A preemergence pigweed; settings: 0 to 100 scale, 0 no effect, 100 complete control
# From the text: as §1, §2
# [6] = system: sedge, umbrella (small-flower umbrella sedge, Cyperus difformis); assay: Test B flooded paddy test sedge, umbrella; settings: Table B, Flood, scale 0 to 100
# Description: as §3
# [7] = system: corn (Zea mays); assay: Test A postemergence corn; settings: 0 to 100 scale, 0 is no effect, 100 is complete control
# From the text: as §1, §2
# [8] = system: ragweed (common ragweed, Ambrosia elatior); assay: Test A postemergence ragweed; settings: 0 to 100 scale, 0 is no effect, 100 is complete control
# From the text: as §1, §2
# [9] = system: foxtail, giant (giant foxtail, Setaria faberii); assay: Test A postemergence foxtail, giant; settings: 0 to 100 scale, 0 is no effect, 100 is complete control
# From the text: as §1, §2
# [10] = system: ryegrass, Italian (Italian ryegrass, Lolium multiflorum); assay: Test A preemergence ryegrass, Italian; settings: 0 to 100 scale, 0 no effect, 100 complete control
# From the text: as §1, §2
# [11] = system: wheat (Triticum aestivum); assay: Test A postemergence wheat; settings: 0 to 100 scale, 0 is no effect, 100 is complete control
# From the text: as §1, §2
# [12] = system: ducksalad (Heteranthera limosa); assay: Test B flooded paddy test ducksalad; settings: Table B, Flood, scale 0 to 100
# Description: as §3
# [13] = system: barnyardgrass (Echinochloa crus-galli); assay: Test A preemergence barnyardgrass; settings: 0 to 100 scale, 0 no effect, 100 complete control
# From the text: as §1, §2
# [14] = system: ryegrass, Italian (Italian ryegrass, Lolium multiflorum); assay: Test A postemergence ryegrass, Italian; settings: 0 to 100 scale, 0 is no effect, 100 is complete control
# From the text: as §1, §2
# [15] = system: blackgrass (Alopecurus myosuroides); assay: Test A postemergence blackgrass; settings: 0 to 100 scale, 0 is no effect, 100 is complete control
# From the text: as §1, §2
# [16] = system: foxtail, giant (giant foxtail, Setaria faberii); assay: Test A preemergence foxtail, giant; settings: 0 to 100 scale, 0 no effect, 100 complete control
# From the text: as §1, §2
# [17] = system: galium (catchweed bedstraw, Galium aparine); assay: Test A postemergence galium; settings: 0 to 100 scale, 0 is no effect, 100 is complete control
# From the text: as §1, §2
# [18] = system: barnyardgrass (Echinochloa crus-galli); assay: Test B flooded paddy test barnyardgrass; settings: Table B, Flood, scale 0 to 100
# Description: as §3
# [19] = system: ragweed (common ragweed, Ambrosia elatior); assay: Test A preemergence ragweed; settings: 0 to 100 scale, 0 no effect, 100 complete control
# From the text: as §1, §2
# [20] = system: kochia (Kochia scoparia); assay: Test A postemergence kochia; settings: 0 to 100 scale, 0 is no effect, 100 is complete control
# From the text: as §1, §2
Structure (SMILES),"Plant response rating, Pigweed ([1]; 125 g ai/ha)","Plant response rating, Pigweed ([1]; 500 g ai/ha)","Plant response rating, Barnyardgrass ([2]; 125 g ai/ha)","Plant response rating, Barnyardgrass ([2]; 500 g ai/ha)",Kochia plant response rating ([4]; 125 g ai/ha),Kochia plant response rating ([4]; 500 g ai/ha),Pigweed plant response rating ([5]; 125 g ai/ha),Pigweed plant response rating ([5]; 500 g ai/ha),"Plant response rating, Corn ([7]; 125 g ai/ha)","Plant response rating, Corn ([7]; 500 g ai/ha)","Plant response rating, Ragweed ([8]; 125 g ai/ha)","Plant response rating, Ragweed ([8]; 500 g ai/ha)","Plant response rating, Foxtail, Giant ([9]; 125 g ai/ha)","Plant response rating, Foxtail, Giant ([9]; 500 g ai/ha)","Ryegrass, Italian plant response rating ([10]; 125 g ai/ha)","Ryegrass, Italian plant response rating ([10]; 500 g ai/ha)","Plant response rating, Wheat ([11]; 125 g ai/ha)","Plant response rating, Wheat ([11]; 500 g ai/ha)",Barnyardgrass plant response rating ([13]; 125 g ai/ha),Barnyardgrass plant response rating ([13]; 500 g ai/ha),also measured
O=C1NCCC(c2cccc(C(F)(F)F)c2)C1C(=O)Nc1ccc(F)cc1F (racemic) [Compound 27],0,0,50,60,0,0,0,0,0,0,0,0,40,70,0,0,0,0,60,90,"Plant response rating ([3]; 500 g ai/ha): 0; Plant response rating ([6]; 500 g ai/ha): 0; Plant response rating ([12]; 500 g ai/ha): 0; Plant response rating, Ryegrass, Italian ([14]; 125 g ai/ha): 0; Plant response rating, Ryegrass, Italian ([14]; 500 g ai/ha): 0; Plant response rating, Blackgrass ([15]; 125 g ai/ha): 0; Plant response rating, Blackgrass ([15]; 500 g ai/ha): 0; Foxtail, Giant plant response rating ([16]; 125 g ai/ha): 80; Foxtail, Giant plant response rating ([16]; 500 g ai/ha): 90; Plant response rating, Galium ([17]; 125 g ai/ha): 0; Plant response rating, Galium ([17]; 500 g ai/ha): 0; Plant response rating ([18]; 500 g ai/ha): 0; Ragweed plant response rating ([19]; 125 g ai/ha): 0; Ragweed plant response rating ([19]; 500 g ai/ha): 0; Plant response rating, Kochia ([20]; 125 g ai/ha): 0; Plant response rating, Kochia ([20]; 500 g ai/ha): 0"
O=C1NCC[C@@H](c2cccc(C(F)(F)F)c2)[C@@H]1C(=O)Nc1cccc(F)c1F [Compound 20],0,0,40,80,0,0,0,0,0,20,0,0,40,80,0,0,0,0,50,90,"Plant response rating ([3]; 250 g ai/ha): 0; Plant response rating ([6]; 250 g ai/ha): 0; Plant response rating ([12]; 250 g ai/ha): 0; Plant response rating, Ryegrass, Italian ([14]; 125 g ai/ha): 0; Plant response rating, Ryegrass, Italian ([14]; 500 g ai/ha): 20; Plant response rating, Blackgrass ([15]; 125 g ai/ha): 0; Plant response rating, Blackgrass ([15]; 500 g ai/ha): 20; Foxtail, Giant plant response rating ([16]; 125 g ai/ha): 60; Foxtail, Giant plant response rating ([16]; 500 g ai/ha): 90; Plant response rating, Galium ([17]; 125 g ai/ha): 0; Plant response rating, Galium ([17]; 500 g ai/ha): 0; Plant response rating ([18]; 250 g ai/ha): 0; Ragweed plant response rating ([19]; 125 g ai/ha): 0; Ragweed plant response rating ([19]; 500 g ai/ha): 0; Plant response rating, Kochia ([20]; 125 g ai/ha): 0; Plant response rating, Kochia ([20]; 500 g ai/ha): 0"
O=C1NCCC(c2cccc(OC(F)(F)F)c2)C1C(=O)Nc1ccccc1F (racemic) [Compound 37],0,0,60,80,0,0,0,0,0,0,0,0,20,70,0,0,0,0,40,70,"Plant response rating ([3]; 250 g ai/ha): 0; Plant response rating ([6]; 250 g ai/ha): 0; Plant response rating ([12]; 250 g ai/ha): 90; Plant response rating, Ryegrass, Italian ([14]; 125 g ai/ha): 0; Plant response rating, Ryegrass, Italian ([14]; 500 g ai/ha): 20; Plant response rating, Blackgrass ([15]; 125 g ai/ha): 0; Plant response rating, Blackgrass ([15]; 500 g ai/ha): 0; Foxtail, Giant plant response rating ([16]; 125 g ai/ha): 70; Foxtail, Giant plant response rating ([16]; 500 g ai/ha): 90; Plant response rating, Galium ([17]; 125 g ai/ha): 0; Plant response rating, Galium ([17]; 500 g ai/ha): 0; Plant response rating ([18]; 250 g ai/ha): 35; Ragweed plant response rating ([19]; 125 g ai/ha): 0; Ragweed plant response rating ([19]; 500 g ai/ha): 0; Plant response rating, Kochia ([20]; 125 g ai/ha): 0; Plant response rating, Kochia ([20]; 500 g ai/ha): 0"
